# Data as given in patent publication US12263177B2, “Biologically active ganoderma lucidum compounds and synthesis of anticancer derivatives; ergosterol peroxide probes for cellular localization” (priority 2019, dated 2025).
# Legend:
# Propidium iodide assay = assay type: cell-based
# Procedure: Efforts to address the specific target in breast cancer cellular models are disclosed. Thus, in the present disclosure, the EP-chemical probes were generated to study subcellular co-localization in order to recover its potential mechanism in breast cancer cell models. An efficient synthetic approach to EP and its analogues from ergosterol was developed. The resultant EP compounds were evaluated for cytotoxicity/apoptosis via CellTiterGlo assay, and propidium iodide assay.
# SUM-149 = assay: Cytotoxicity of EP probes via CTG assay; assay type: cell-based, human; conditions: 72 hr, read-out: SUM149 EC50
# Procedure: (§1) For the CTG assay, 3 or 4 replicate assays were conducted for each experimental condition, and a minimum of 3 independent experiments were conducted for cellular assays. The mean luminescence of each experimental treatment group was normalized as a percentage of the mean intensity of untreated controls. EC50 values (μM) were calculated by Pipeline Pilot Software (Accelrys, Enterprise Platform, CA, USA). EC50 values (μM) from the viability assay were calculated from dose response curve-fitting via non-linear regression by using GraphPad Prism (Version 7.0 San Diego, CA).
# T47D = assay: Cytotoxicity of EP probes via CTG assay; assay type: cell-based; conditions: 72 hr
# Procedure: as §1
# HMEC = assay: Cytotoxicity of EP probes via CTG assay, normal cells; assay type: cell-based; conditions: 72 hr
# Procedure: as §1
# [1] = system: MDA-MB-231, SUM-149, T47D; assay: Cytotoxicity of EP analogues via CTG assay, comparison across cell lines; conditions: 72 hr
# Procedure: To better understand the structure-activity-relationship of EP, its core was modified at the C3 position of the steroid backbone. […] Both normal cell lines HMEC and BJ cells were also evaluated to determine therapeutic index.
# Either 1×10^3-4.8×10^3 or 4×10^2-1.2×10^3 cells were seeded to each well of 96- or 384-well white polystyrene flat-bottomed plates (3610 or 8804BC, Corning) in 100 μL or 30 μL media per well, respectively. The concentrations used were experimentally determined to ensure logarithmic growth during the duration of the experiment and prevent adverse effects on cell growth by DMSO exposure. The plates were incubated at 37° C. in 5% CO2 for 24 h before treatment. Stock solutions of test compounds (10 mM in DMSO) in nine 3-fold serial dilutions were dispensed via pintool (Biomek). The final concentration of DMSO was 0.3% (v/v) in each well. The plates were incubated for 72 h at 37° C. in 5% CO2 and then quenched with CellTiter-Glo® reagent (50 μL/well in 96-well plate, 30 μL/well in 384-well plate) at RT. The positive controls included staurosporine (10 μM), gambogic acid (10 μM), and a toxic quinoline generated in-house. Plates were then incubated at RT for 20 min and centrifuged at 1000 rpm for 1 min. The cytotoxicity assay was performed by using the CellTiterGlo Luminescent Cell Viability Assay kit (G7570, Promega, Madison, WI) according to the manufacturer's instructions. Luminescence was recorded in an Envision plate reader (Perkin Elmer).
# MDA-MB-231 = assay: Cytotoxicity of EP probes via CTG assay; assay type: cell-based, human; conditions: 72 hr, read-out: MDA-MB231 EC50
# Procedure: as §1
# [2] = system: MCF-7 breast cancer cells; assay: Reactive oxygen species (ROS) measurement, CellROX; assay type: cell-based, human; conditions: not statistically significant for the GLE compounds
# Procedure: Live-cell CellROX® assays for oxidative stress detection were conducted to evaluate whether GA-01, ergosterol, 5-6-dihydroergosterol and EP trigger intrinsic apoptosis pathways by inducing ROS. […] Menadione or t-Butyl hydrogen peroxide (TBHP) were positive controls (FIGS. 7 and S5) and co-treated with N-acetyl cysteine (NAC) to confirm that the signal was due to ROS formation induced by the compound. […] Furthermore, the possibility of the endoperoxide motif to react with NAC, was assessed EP was incubated with NAC in DMSO for 24 h at 37° C. […] Thus, the ability of EP to induce ROS could potentially be via a different mechanism from that of TBHP in MCF-7 cells.
# The mRuby-Mito-7 plasmid was obtained from Addgene (#55874 from Michael Davidson). A stable clone of MCF-7 was generated by using Fugene 6 (Roche) to transfect cells (2×10^5) with plasmid (2.0 μg) under neomycin selection. A stable cell line was selected by using G418 (300 μg/mL) for 2 weeks, sorted by flow cytometry, and maintained under G418 thereafter. Transfected MCF-7 cells were plated at a density of 2×10^4 cells/well in black 96-well clear bottom tissue culture plates and incubated overnight at 37° C. […] Fluorescence intensity was measured in a Clariostar® plate reader (BMG LABTECH, Cary, NC) at 535 nm.
SMILES,ability to induce apoptosis (Propidium iodide assay),EC50 (SUM-149),EC50 (T47D),EC50 (HMEC),cytotoxicity compared with parental compound 3 (in words) [1],EC50 (MDA-MB-231),ROS formation reduction when co-treated with NAC [2]
CC(C)C(C)C=CC(C)C1CCC2C1(C)CCC1C23C=CC2(CC(OC(=O)CCCCC4SCC5NC(=O)NC54)CCC12C)OO3 (stereo not shown) [3k],validated via propidium iodide assay,4 µM,> 10 µM,> 14 µM,comparable cytotoxicity to the parental compound 3,10 µM,
Cc1cc(C)n2c1C=C1C=CC(CCC(=O)OC3CCC4(C)C5CCC6(C)C(C(C)C=CC(C)C(C)C)CCC6C56C=CC4(C3)OO6)=[N+]1[B-]2(F)F (stereo not shown) [3m],validated via propidium iodide assay,2 µM,18 µM,> 15 µM,comparable cytotoxicity to the parental compound 3,18 µM,
"CC(C)(C)OO [TBHP, t-Butyl hydroperoxide]",,,,,,,~50%
